Assay results from patent US12048680B2, “Use of Gemfibrozil and derivative thereof for treatment and/or prevention of neurodegenerative disease” (Kunming Institute of Zoology Chinese Academy of Sciences, priority 2018, dated 2024).

What was measured:
APP/PS1ΔE9 mice = experiment: Water maze test of spatial learning and memory; assay type: in vivo, mouse
Experimental: Gemfibrozil was administered to 8-month-old APP/PS1ΔE9 mice (male and female halves). Gemfibrozil was first dissolved in dimethyl sulfoxide (DMSO) at a concentration of 50 mg/mL, and then diluted to a final concentration of 50 μg/mL with mouse drinking water to obtain a drug solution. The mice in the administration group were allowed to freely drink the drug solution containing gemfibrozil, in which the final concentration of DMSO in the solution was 0.1%; and the mice in the control group were allowed to drink water containing 0.1% DMSO freely. All drinking devices contained with Gemfibrozil were wrapped in aluminum foil to prevent decomposition by exposure. During dosing, the drug solution was replaced every 2 days. Mice were measured daily for water consumption. After 2 months of dosing, all mice were subjected to behavioural experiments. Mice were placed in the laboratory to be behaviourally tested one hour prior to the start of daily behavioural studies, and all behavioural experiments were completed between 9 and 17 o'clock. All experiments involving animals were approved by Animal Ethics Committee of the Kunming Institute of Zoology, CAS. According to the application, a water maze experiment was adopted to evaluate the learning and memory capacity of AD mice after Gemfibrozil was administered for 2 months. The parameters of the used water maze were as follows: a circular pool having a diameter of 120 cm, a height of 50 cm, and a water depth of about 30 cm; and a cylindrical plastic lifesaving platform having a diameter of 10 cm, a height of 29 cm, and submerged 1 cm below the water surface. The water temperature was kept at 20+1° C. During the test, in order to prevent the mice from seeing the platform, white plastic foam was added to the water to spread on the water surface evenly until the lifesaving platform could not be seen, and the water was replaced every two days. The circular pool was divided into four quadrants, and the lifesaving platform was placed in the center of the third quadrant. A camera was arranged right above the water maze and used for recording the movement track of the mice. Mice were placed from the rearing room into a room for the water maze experiment for 1 hour before the start of each day of the experiment. The mice were trained for 7 consecutive days. The starting position was randomly changed among the four quadrants, the mice were allowed to explore freely for 1 minute, and the time required for the mice to find a lifesaving platform (also known as latency) was measured. If the mouse was able to find the platform within 1 minute, it was allowed to sit on the platform for 20 seconds, so that it can remember the location of the lifesaving platform based on surrounding markers. […] Each mouse was trained at 90-minute intervals each day and randomly placed in the water maze in three different quadrants each day to look for the lifesaving platform. After 4 hours after the last training on the 7th day, the lifesaving platform of the water maze was removed. The mice were put into water, and the time, the distance and the speed of the mice around the lifesaving platform within 1 minute and the number of shuttles at the position of the lifesaving platform were measured, thereby evaluating the short-term memory capacity of the mice. After 72 hours after the last training on the 7th day, the lifesaving platform of the water maze was removed again. The mice were put into water, and the time, the distance and the speed of the mice around the lifesaving platform within 1 minute and the number of shuttles at the position of the lifesaving platform were measured, thereby evaluating the long-term memory capacity of the mice. During the experiment, the surrounding environment of the water maze should be kept consistent to avoid the influence of environmental factors. The behavior of the mice was followed and videotaped throughout the experiment using SMART 3.0 software (Panlab HARVARD, MA, USA). […]

soluble Aβ = experiment: Western blot of soluble Aβ in mouse brain tissue; assay type: in vivo
Experimental: Gemfibrozil was administered to 8-month-old APP/PS1ΔE9 mice (male and female halves). Gemfibrozil was first dissolved in dimethyl sulfoxide (DMSO) at a concentration of 50 mg/mL, and then diluted to a final concentration of 50 μg/mL with mouse drinking water to obtain a drug solution. The mice in the administration group were allowed to freely drink the drug solution containing gemfibrozil, in which the final concentration of DMSO in the solution was 0.1%; and the mice in the control group were allowed to drink water containing 0.1% DMSO freely. All drinking devices contained with Gemfibrozil were wrapped in aluminum foil to prevent decomposition by exposure. During dosing, the drug solution was replaced every 2 days. Mice were measured daily for water consumption. After 2 months of dosing, all mice were subjected to behavioural experiments. Mice were placed in the laboratory to be behaviourally tested one hour prior to the start of daily behavioural studies, and all behavioural experiments were completed between 9 and 17 o'clock. All experiments involving animals were approved by Animal Ethics Committee of the Kunming Institute of Zoology, CAS.
4. Expression of Related Proteins by Western Blot
The specific steps were as follows:
1) Extracting protein: the protein was extracted from the mouse brain tissue using western and an IP lysate from Beyotime Biotechnology.
2) Determining protein concentration: HM and U251-APP cells and mouse brain proteins were measured using a BCA protein quantification kit, and the extracted proteins were used for subsequent detection.
3) Pretreatment before loading: each sample was loaded at 20 μg depending on the protein concentration. The protein denaturant anhydrous mercaptoethanol was first added to denature the proteins at 95° C. for 6 minutes. After denaturation, the sample was placed on ice and stood for 5 minutes.
4) Loading and performing ectrophoresis: the denatured protein samples were loaded to the corresponding wells to start electrophoresis.
5) Membrane transfer treatment: according to the ratio of the reagent required by 1 L of a membrane transfer solution (10× membrane transfer solution: anhydrous methanol:water=1:2:7), a certain amount of the membrane transfer solution was prepared, the sponge and filter paper were immersed in the membrane transfer solution, and the PVDF membrane was previously immersed in anhydrous methanol for 30 seconds to be activated. A membrane transfer plate was manufactured according to the sequence of sponge-filter paper-glue-membrane-filter paper-sponge (the protein was negatively charged, and was transferred to a PVDF membrane towards the positive electrode). […]

[1] = hippocampus and cortex of APP/PS1ΔE9 mice, Western blot (A-B in FIG. 4)

Cc1ccc(C)c(OCCCC(C)(C)C(=O)O)c1 [Gemfibrozil, 2,2-dimethyl-5-(2,5-dimethylphenoxy) pentanoic acid]
learning ability (APP/PS1ΔE9 mice; 8-month-old APP/PS1ΔE9 mice, 50 μg/mL in drinking water for 2 months, 7 days of training, vs control group): significantly improved | short-term memory capacity (APP/PS1ΔE9 mice; 4 hours after the last training, platform removed, vs control group): significantly improved | long-term memory capacity (APP/PS1ΔE9 mice; 72 hours after the last training, platform removed): significantly improved | escape time (latency) required to reach the lifesaving platform (APP/PS1ΔE9 mice; APP/PS1ΔE9 mice, 50 μg/mL in drinking water for 2 months, training phase, vs control group (A in FIG. 1)): less than the control group | range required to reach the lifesaving platform (APP/PS1ΔE9 mice; APP/PS1ΔE9 mice, 50 μg/mL in drinking water for 2 months, training phase, vs control group (B in FIG. 1)): less than the control group | lingering time in the target quadrant (APP/PS1ΔE9 mice; long-term memory, 72 hours after the last training (G in FIG. 1)): increase | distance in the target quadrant (APP/PS1ΔE9 mice; long-term memory, 72 hours after the last training (H in FIG. 1)): increase | number of shuttles at the position of the lifesaving platform (APP/PS1ΔE9 mice; long-term memory, 72 hours after the last training (I in FIG. 1)): increases | lingering time in the target quadrant (APP/PS1ΔE9 mice; short-term memory, 4 hours after the last training (D in FIG. 1)): increase | distance in the target quadrant (APP/PS1ΔE9 mice; short-term memory, 4 hours after the last training (E in FIG. 1)): increase | number of shuttles at the position of the lifesaving platform (APP/PS1ΔE9 mice; short-term memory, 4 hours after the last training (F in FIG. 1)): increases | ratio of Aβ42 and Aβ40 (soluble) (soluble Aβ; between groups, Western blot (A-B in FIG. 4)): did not change significantly | level of Aβ40 (soluble) (soluble Aβ; [1]): decreased significantly | level of Aβ42 (soluble) (soluble Aβ; [1]): decreased significantly | soluble Aβ (soluble Aβ; hippocampus and cortex of APP/PS1ΔE9 mice, vs control group (A-B in FIG. 4)): significantly reduced
